The source made the active and inactive calls. The rule behind the calls is not given here.
Key:
Keratinocyte = assay: Antiproliferative activity against mouse keratinocytes; type: functional, cell-based
Rattus norvegicus = assay: Inhibition of calciuria in rat at 10 ug/kg, po administered qd for 1 week; type: functional, organism-based
[1] = Antiproliferative activity against mouse keratinocytes at 10 nM relative to calcitrol; type: functional, Keratinocyte

Row | Structure (SMILES) | Activity (Keratinocyte) | inhibition (Rattus norvegicus) | Ratio [1]
1 | C=C1/C(=C\C=C2/CCC[C@]3(C)C([C@H](C)CCCS(=O)(=O)C(C)C)=CC[C@@H]23)C[C@@H](O)C[C@@H]1O | Active | Active | 
2 | C=C1/C(=C\C=C2/CCC[C@]3(C)C([C@H](C)CCCS(C)(=O)=O)=CC[C@@H]23)C[C@@H](O)C[C@@H]1O | Active | Active | 
3 | C=C1/C(=C\C=C2/CCC[C@]3(C)[C@@H]([C@H](C)CCCC(C)(C)O)CC[C@@H]23)C[C@@H](O)C[C@@H]1O |  | Active | 
4 | C=C1/C(=C\C=C2/CCC[C@]3(C)C([C@H](C)CCCS(=O)(=O)C(F)(F)F)=CC[C@@H]23)C[C@@H](O)C[C@@H]1O |  | Active | 2
